pIC50: −log10 of the molar value.
Test system: 616215-338-R-J1-PDC complex spheroid viability
Test: Anticancer human tumor 616215-338-R-J1-PDC patient-derived colon adenocarcinoma cell line growth inhibition [POLQ]
Settings: for pIC50: curve of first compound; for viability, T/C: stronger effect = lower value
Method in brief: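 PDC + HUVEC + MSC complex spheroids; POLQ inhibitors ± partner drugs; top conc. at/near clinical Cmax, else 10 microM (SN-38 1 microM), half-log dilutions; 37 degrees C, 5% CO2.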

[1] = second compound 0.0316 µM, first compound 0.0316 µM
[2] = second compound 0.0316 µM, first compound 0.1 µM
[3] = second compound 0.0316 µM, first compound 0.316 µM
[4] = second compound 0.0316 µM, first compound 1 µM
[5] = second compound 0.1 µM, first compound 0.0316 µM
[6] = second compound 0.1 µM, first compound 0.1 µM
[7] = second compound 0.1 µM, first compound 0.316 µM
[8] = second compound 0.1 µM, first compound 1 µM
[9] = second compound 0.316 µM, first compound 0.0316 µM
[10] = second compound 0.316 µM, first compound 0.1 µM
[11] = second compound 0.316 µM, first compound 0.316 µM
[12] = second compound 0.316 µM, first compound 1 µM
[13] = second compound 1 µM, first compound 0.0316 µM
[14] = second compound 1 µM, first compound 0.1 µM
[15] = second compound 1 µM, first compound 0.316 µM
[16] = second compound 1 µM, first compound 1 µM
[17] = second compound 3.16 µM, first compound 0.0316 µM
[18] = second compound 3.16 µM, first compound 0.1 µM
[19] = second compound 3.16 µM, first compound 0.316 µM
[20] = second compound 3.16 µM, first compound 1 µM
[21] = second compound 10 µM, first compound 0.0316 µM
[22] = second compound 10 µM, first compound 0.1 µM
[23] = second compound 10 µM, first compound 0.316 µM
[24] = second compound 10 µM, first compound 1 µM
[25] = second compound 0.0316 µM, first compound 3.16 µM
[26] = second compound 0.0316 µM, first compound 10 µM
[27] = second compound 0.1 µM, first compound 3.16 µM
[28] = second compound 0.1 µM, first compound 10 µM
[29] = second compound 0.316 µM, first compound 3.16 µM
[30] = second compound 0.316 µM, first compound 10 µM
[31] = second compound 1 µM, first compound 3.16 µM
[32] = second compound 1 µM, first compound 10 µM
[33] = second compound 3.16 µM, first compound 3.16 µM
[34] = second compound 3.16 µM, first compound 10 µM
[35] = second compound 10 µM, first compound 3.16 µM
[36] = second compound 10 µM, first compound 10 µM
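Further: spheroids exposed to compounds for one week before readout.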
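Wherever viability, T/C is given: percent viability relative to DMSO vehicle wells taken as 100%.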

## CCc1c2c(nc3ccc(O)cc13)-c1cc3c(c(=O)n1C2)COC(=O)[C@]3(O)CC + Cc1cccc(N(C)C(=O)C2C(O)CCN2c2nc(C)cc(C(F)(F)F)c2C#N)c1
Second compound 0.0316 µM
  pIC50: 7.06
Second compound 0.1 µM
  pIC50: 7.04
Second compound 0.316 µM
  pIC50: 7.07
Second compound 1 µM
  pIC50: 7.10
Second compound 3.16 µM
  pIC50: 7.18
Second compound 10 µM
  pIC50: 7.32
Second compound 0.0316 µM, first compound 0.00316 µM
  viability, T/C: 104%
Second compound 0.0316 µM, first compound 0.01 µM
  viability, T/C: 97%
[1]
  viability, T/C: 72.8%
[2]
  viability, T/C: 49.3%
[3]
  viability, T/C: 24.6%
[4]
  viability, T/C: 20.8%
Second compound 0.1 µM, first compound 0.00316 µM
  viability, T/C: 114%
Second compound 0.1 µM, first compound 0.01 µM
  viability, T/C: 90.5%
[5]
  viability, T/C: 71.9%
[6]
  viability, T/C: 44.5%
[7]
  viability, T/C: 33.5%
[8]
  viability, T/C: 16.1%
Second compound 0.316 µM, first compound 0.00316 µM
  viability, T/C: 109%
Second compound 0.316 µM, first compound 0.01 µM
  viability, T/C: 87.1%
[9]
  viability, T/C: 69.7%
[10]
  viability, T/C: 48.1%
[11]
  viability, T/C: 26.9%
[12]
  viability, T/C: 18.6%
Second compound 1 µM, first compound 0.00316 µM
  viability, T/C: 111%
Second compound 1 µM, first compound 0.01 µM
  viability, T/C: 92.9%
[13]
  viability, T/C: 79.9%
[14]
  viability, T/C: 40.1%
[15]
  viability, T/C: 26%
[16]
  viability, T/C: 18.7%
Second compound 3.16 µM, first compound 0.00316 µM
  viability, T/C: 116%
Second compound 3.16 µM, first compound 0.01 µM
  viability, T/C: 80.7%
[17]
  viability, T/C: 67.8%
[18]
  viability, T/C: 41.6%
[19]
  viability, T/C: 27.5%
[20]
  viability, T/C: 22.1%
Second compound 10 µM, first compound 0.00316 µM
  viability, T/C: 97.7%
Second compound 10 µM, first compound 0.01 µM
  viability, T/C: 68.7%
[21]
  viability, T/C: 62.3%
[22]
  viability, T/C: 39%
[23]
  viability, T/C: 25%
[24]
  viability, T/C: 23.1%

## Nc1ccn(C2OC(CO)C(O)C2(F)F)c(=O)n1 (stereo unspecified) + Cc1cccc(N(C)C(=O)C2C(O)CCN2c2nc(C)cc(C(F)(F)F)c2C#N)c1
Second compound 0.0316 µM
  pIC50: 7.37
Second compound 0.1 µM
  pIC50: 7.27
Second compound 0.316 µM
  pIC50: 7.24
Second compound 1 µM
  pIC50: 7.30
Second compound 3.16 µM
  pIC50: 7.24
Second compound 10 µM
  pIC50: 7.23
[1]
  viability, T/C: 55.2%
[2]
  viability, T/C: 36.6%
[3]
  viability, T/C: 22.8%
[4]
  viability, T/C: 30.8%
[25]
  viability, T/C: 29.6%
[26]
  viability, T/C: 27%
[5]
  viability, T/C: 62.2%
[6]
  viability, T/C: 37.8%
[7]
  viability, T/C: 23.4%
[8]
  viability, T/C: 28.1%
[27]
  viability, T/C: 40.2%
[28]
  viability, T/C: 28.8%
[9]
  viability, T/C: 66.7%
[10]
  viability, T/C: 36.1%
[11]
  viability, T/C: 26%
[12]
  viability, T/C: 25.7%
[29]
  viability, T/C: 34.4%
[30]
  viability, T/C: 28.9%
[13]
  viability, T/C: 61.9%
[14]
  viability, T/C: 32.2%
[15]
  viability, T/C: 25.4%
[16]
  viability, T/C: 28.8%
[31]
  viability, T/C: 26.7%
[32]
  viability, T/C: 27.1%
[17]
  viability, T/C: 62.5%
[18]
  viability, T/C: 40.4%
[19]
  viability, T/C: 25.5%
[20]
  viability, T/C: 29.4%
[33]
  viability, T/C: 28.2%
[34]
  viability, T/C: 26.8%
[21]
  viability, T/C: 63.9%
[22]
  viability, T/C: 40.5%
[23]
  viability, T/C: 26%
[24]
  viability, T/C: 27.1%
[35]
  viability, T/C: 30.1%
[36]
  viability, T/C: 26.2%

## O=C(c1cc(Cc2n[nH]c(=O)c3ccccc23)ccc1F)N1CCN(C(=O)C2CC2)CC1 + Cc1cccc(N(C)C(=O)C2C(O)CCN2c2nc(C)cc(C(F)(F)F)c2C#N)c1
Second compound 0.0316 µM
  pIC50: < 5.00
Second compound 0.1 µM
  pIC50: < 5.00
Second compound 0.316 µM
  pIC50: < 5.00
Second compound 1 µM
  pIC50: < 5.00
Second compound 3.16 µM
  pIC50: < 5.00
Second compound 10 µM
  pIC50: < 5.00
[1]
  viability, T/C: 105%
[2]
  viability, T/C: 93.8%
[3]
  viability, T/C: 102%
[4]
  viability, T/C: 98.4%
[25]
  viability, T/C: 103%
[26]
  viability, T/C: 87.8%
[5]
  viability, T/C: 103%
[6]
  viability, T/C: 98.4%
[7]
  viability, T/C: 107%
[8]
  viability, T/C: 107%
[27]
  viability, T/C: 99.9%
[28]
  viability, T/C: 94.3%
[9]
  viability, T/C: 95.3%
[10]
  viability, T/C: 102%
[11]
  viability, T/C: 108%
[12]
  viability, T/C: 98.9%
[29]
  viability, T/C: 108%
[30]
  viability, T/C: 89.2%
[13]
  viability, T/C: 111%
[14]
  viability, T/C: 106%
[15]
  viability, T/C: 105%
[16]
  viability, T/C: 101%
[31]
  viability, T/C: 102%
[32]
  viability, T/C: 78%
[17]
  viability, T/C: 103%
[18]
  viability, T/C: 102%
[19]
  viability, T/C: 95.6%
[20]
  viability, T/C: 103%
[33]
  viability, T/C: 97.3%
[34]
  viability, T/C: 88.4%
[21]
  viability, T/C: 113%
[22]
  viability, T/C: 101%
[23]
  viability, T/C: 100%
[24]
  viability, T/C: 104%
[35]
  viability, T/C: 110%
[36]
  viability, T/C: 86.6%

Reference: PubChem BioAssay AID1963843 (Molecular Pharmacology Branch, DTP, NCI, 2024)
